Source: publication PMC4150253 (ChemMedChem, 2014)

Tests used:
Type in all cases: biochemical
[1] = target: PCAF HAT domain (493-658) (Homo sapiens, UniProt Q92831); assay: Radiometric HAT assay, PCAF HAT domain
FL-Tip60 (1-512 aa) = FL-Tip60 (1-512 aa) (Homo sapiens, UniProt Q92993); assay: Radiometric filter binding HAT assay, full-length Tip60
CAT-Tip60 (221-512 aa) = CAT-Tip60 (221-512 aa) (Homo sapiens, UniProt Q92993); assay: Radiometric filter binding HAT assay, Tip60 catalytic domain
Chain of CAT-Tip60 (221-512 aa) (Q92993 221-512): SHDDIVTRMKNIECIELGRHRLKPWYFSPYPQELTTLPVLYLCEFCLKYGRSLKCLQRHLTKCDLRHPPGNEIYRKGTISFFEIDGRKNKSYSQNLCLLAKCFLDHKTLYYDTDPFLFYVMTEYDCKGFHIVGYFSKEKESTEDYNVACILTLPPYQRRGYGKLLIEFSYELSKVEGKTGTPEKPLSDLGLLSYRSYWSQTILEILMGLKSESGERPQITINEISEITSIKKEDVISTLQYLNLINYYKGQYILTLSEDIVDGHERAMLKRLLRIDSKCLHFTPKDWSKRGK

Chain of PCAF HAT domain (493-658) (Q92831 493-658): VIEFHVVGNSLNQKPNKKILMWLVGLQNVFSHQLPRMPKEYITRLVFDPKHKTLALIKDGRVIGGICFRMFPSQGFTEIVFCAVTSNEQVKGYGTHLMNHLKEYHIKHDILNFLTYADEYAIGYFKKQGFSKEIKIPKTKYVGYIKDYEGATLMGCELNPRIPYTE
Chain of FL-Tip60 (1-512 aa) (Q92993 1-512): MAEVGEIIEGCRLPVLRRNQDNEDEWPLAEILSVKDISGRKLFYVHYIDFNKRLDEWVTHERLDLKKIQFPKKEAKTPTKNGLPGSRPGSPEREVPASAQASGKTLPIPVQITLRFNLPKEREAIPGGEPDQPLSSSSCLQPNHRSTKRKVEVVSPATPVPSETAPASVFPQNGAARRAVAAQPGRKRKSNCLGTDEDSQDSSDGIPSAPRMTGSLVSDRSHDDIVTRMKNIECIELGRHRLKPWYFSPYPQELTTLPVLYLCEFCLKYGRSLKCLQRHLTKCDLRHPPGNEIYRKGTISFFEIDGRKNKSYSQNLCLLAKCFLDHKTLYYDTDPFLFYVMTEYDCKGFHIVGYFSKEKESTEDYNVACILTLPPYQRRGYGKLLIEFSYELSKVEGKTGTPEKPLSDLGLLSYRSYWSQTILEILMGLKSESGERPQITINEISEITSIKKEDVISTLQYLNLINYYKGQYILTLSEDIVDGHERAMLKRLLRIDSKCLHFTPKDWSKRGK

With `CC(C)(COP(=O)(O)OP(=O)(O)OC[C@H]1O[C@@H](n2cnc3c(N)ncnc32)[C@H](O)[C@@H]1OP(=O)(O)O)[C@@H](O)C(=O)NCCC(=O)NCCS` [CoASH] the IC50 [1] was 8.4 ± 0.4 µM, the IC50 (FL-Tip60 (1-512 aa)) was 9.1 ± 1 µM and the IC50 (CAT-Tip60 (221-512 aa)) was 16 ± 3.1 µM.
